Source: patent publication US11667602B2, “Compounds and their use” (AstraZeneca AB, priority 2020, dated 2023)
Values after ≈ are worked out from the molar mass of the structure shown. Where two headings read alike, the source gives them in different places.

Legend:
[1] = Rat Hepatocyte Stability (Test E); assay type: in vitro ADME; settings: rat, hepatocytes, geometric mean if run multiple times
How it was run: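 Intrinsic clearance in rat hepatocytes, expressed as μl/min/10^6 cells, following the literature integrated DMPK panel method. Repeat determinations combined as geometric mean.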

[2] = Solubility (Test F); assay type: physicochemical; settings: arithmetic mean if run multiple times
Method: The assay was conducted according to the Solubility Assay described in pages 164-167 of Wernevik, J. et al., “A Fully Integrated Assay Panel for Early Drug Metabolism and Pharmacokinetics Profiling”, Assay and Drug Development Technologies, 2020, 18(4), 157-179. Data are reported in Table 36 as solubility ([…]. Where the assay was run multiple times for the same compound, the arithmetic mean is reported.

[3] = Human Hepatocyte Stability (Test D); assay type: in vitro ADME; settings: human, cryopreserved pooled human hepatocytes (LiverPool 10-Donor), geometric mean if run multiple times
How it was run: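 Intrinsic clearance (μL/min/10^6 cells), derived as kV/N from the log-linear loss of parent compound. Compound incubated at 37 °C with cryopreserved pooled human hepatocytes, 0.25×10^6 cells in 0.25 mL L-15; dosing solution 100 μM in acetonitrile. Singlicate incubations, cassette LC-MS; repeats reported as geometric mean.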

[4] = target: T1, human RXFP1 (Homo sapiens, UniProt Q9HBX9); experiment: RXFP1 Hu cAMP (Test A); assay type: cell-based; parameters: expressed in transfected cells; host or cells: Jump-In T-REx CHO-K1 cells (ThermoFisher), induced with 10 ng/ml doxycycline for 24 h
T1 sequence (Q9HBX9 1-757): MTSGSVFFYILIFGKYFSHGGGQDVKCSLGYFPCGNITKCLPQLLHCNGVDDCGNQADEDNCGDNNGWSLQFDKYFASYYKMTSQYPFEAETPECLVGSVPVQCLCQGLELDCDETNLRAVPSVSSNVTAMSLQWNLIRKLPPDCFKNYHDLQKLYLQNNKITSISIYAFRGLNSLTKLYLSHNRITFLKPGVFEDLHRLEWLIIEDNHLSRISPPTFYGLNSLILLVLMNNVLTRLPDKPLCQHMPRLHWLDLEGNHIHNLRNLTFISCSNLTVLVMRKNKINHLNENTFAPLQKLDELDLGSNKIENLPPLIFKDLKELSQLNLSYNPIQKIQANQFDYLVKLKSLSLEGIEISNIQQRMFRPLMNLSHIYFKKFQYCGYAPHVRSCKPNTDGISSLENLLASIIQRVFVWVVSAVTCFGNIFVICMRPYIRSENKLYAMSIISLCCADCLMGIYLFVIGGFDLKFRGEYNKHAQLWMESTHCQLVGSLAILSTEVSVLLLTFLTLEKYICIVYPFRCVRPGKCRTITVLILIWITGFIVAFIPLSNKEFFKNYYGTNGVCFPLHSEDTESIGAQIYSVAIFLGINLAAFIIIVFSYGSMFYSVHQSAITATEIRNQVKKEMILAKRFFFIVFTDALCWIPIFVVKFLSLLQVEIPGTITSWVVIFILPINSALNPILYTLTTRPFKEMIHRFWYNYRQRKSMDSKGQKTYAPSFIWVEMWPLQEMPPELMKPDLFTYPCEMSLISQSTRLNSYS
How it was run: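 Cells: CHO-K1 stably carrying human RXFP1, expressed after 24 h 10 ng/ml doxycycline; 0.5 mM IBMX final, HTRF detection after 2 h at room temperature.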

[5] = Human Plasma Protein Binding (Test B); assay type: in vitro ADME; settings: fraction unbound (fu)
How it was run: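 Values given as % free (fu) in human plasma, using the method of Wernevik et al. (2020). For compounds tested more than once, the arithmetic mean is given.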

[6] = Human Liver Microsomal Stability (Test C); assay type: in vitro ADME; settings: human, liver microsomes
How it was run: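 CLint (μl/min/mg protein) derived from compound depletion in human liver microsomes following a published standardized early-DMPK protocol; replicate determinations given as arithmetic mean.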

[7] = RXFP1 Hu cAMP, read-out: Test A EC50

Compound | hepatocyte CLint [1] | solubility [2] | hepatocyte CLint at 1 µM [3] | Test A Sinf ([4]; RXFP1 Hu cAMP) | EC50 [4, 7] | Test B Human Plasma Protein Binding (% free) [5] | microsomal CLint [6] | EC50 ([4]; Test A EC50, RXFP1 Hu cAMP)
COc1cc(F)c(O[C@H]2CC[C@@](CO)(C(=O)O)CC2)cc1C(=O)N[C@@H]1[C@H]2CC[C@H](C2)[C@@H]1C(=O)NCC1(C(F)(F)F)CCC1 [Example 365] | 15 µL/min/1e6 cells | 980 µM (≈ 602 µg/mL) | 9.3 µL/min/1e6 cells | 113% | 57 nM | 7.8 % free | 14 µL/min/mg | 
COc1cc(Cl)c(O[C@H]2CC[C@@](C)(C(=O)O)CC2)cc1C(=O)N[C@@H]1[C@H]2CC[C@H](C2)[C@@H]1C(=O)NCC(C)(C)C [Example 412] | 24 µL/min/1e6 cells | 930 µM (≈ 511 µg/mL) | 2.6 µL/min/1e6 cells | 110% | 37 nM | 5.3 % free | 13 µL/min/mg | 
COc1cc(F)c(O[C@H]2CC[C@@](C)(C(=O)O)CC2)cc1C(=O)Nc1cc(Cl)ccc1C(=O)NCC1(C)CCC1 [Example 155, (1s,4s)-4-(5-((5-Chloro-2-(((1-methylcyclobutyl)methyl)carbamoyl)phenyl)carbamoyl)-2-fluoro-4-methoxyphenoxy)-1-methylcyclohexane-1-carboxylic acid] | 30 µL/min/1e6 cells | 37 µM (≈ 20.8 µg/mL) | 11 µL/min/1e6 cells | 126% | 8.4 nM | 0.49 % free | 5.4 µL/min/mg | 
COc1cc(F)c(-c2ccn(CCC(=O)O)c(=O)c2)cc1C(=O)N[C@@H]1[C@H]2CC[C@H](C2)[C@@H]1C(=O)Nc1cccc(S(=O)(=O)C(F)(F)F)c1 [Example 249] | 15 µL/min/1e6 cells | 190 µM (≈ 129 µg/mL) | 11 µL/min/1e6 cells | 113% | 320 nM | 3.4 % free | 43 µL/min/mg | 
COc1cc(F)c(O[C@H]2CC[C@@H](C(=O)O)CC2)cc1C(=O)NC1=C(C(=O)Nc2ccc(F)c(C(F)(F)F)c2)CCC1 [Example 214, (1s,4s)-4-(2-Fluoro-5-((2-((4-fluoro-3-(trifluoromethyl)phenyl)carbamoyl)cyclopent-1-en-1-yl)carbamoyl)-4-methoxyphenoxy)cyclohexane-1-carboxylic acid] | 5.3 µL/min/1e6 cells | 400 µM (≈ 233 µg/mL) | 2.3 µL/min/1e6 cells | 115% |  | 0.090 % free | < 3 µL/min/mg | 
COc1cc(F)c(-c2ccc(C3(C(=O)O)CC3)cc2)cc1C(=O)N[C@H]1[C@@H](C(=O)Nc2cccc(S(=O)(=O)C(F)(F)F)c2)[C@@H]2C=C[C@H]1C2 (racemic) [Example 288] | 21 µL/min/1e6 cells | 24 µM (≈ 16.1 µg/mL) | 5 µL/min/1e6 cells | 107% |  | <0.32 % free | 5.1 µL/min/mg | 
COc1cc(F)c(-c2ccc(C(=O)O)cc2)cc1C(=O)N[C@H]1[C@@H]2CC[C@@H](C2)[C@H]1C(=O)Nc1ccc(F)c(C(F)(F)F)c1 (single isomer, unassigned) [Example 591] | 28 µL/min/1e6 cells | > 1000 µM | 140 µL/min/1e6 cells | 111% |  | <0.36 % free | 19 µL/min/mg | 
COc1cc(C#N)c(O[C@H]2CC[C@@](C)(C(=O)O)CC2)cc1C(=O)N[C@@H]1[C@H]2CC[C@H](C2)[C@@H]1C(=O)NC(C)(C)C [Example 99] | 11 µL/min/1e6 cells | 920 µM (≈ 484 µg/mL) | < 1 µL/min/1e6 cells | 113% | 140 nM | 20 % free | 6.2 µL/min/mg | 
COc1c(C#N)cc(O[C@H]2CC[C@@](C)(C(=O)O)CC2)cc1C(=O)N[C@@H]1[C@H]2CC[C@H](C2)[C@@H]1C(=O)NCC1(C)CCC1 [Example 404] | 19 µL/min/1e6 cells | 1000 µM (≈ 552 µg/mL) | 11 µL/min/1e6 cells |  |  | 2.3 % free | 50 µL/min/mg | 86 nM
COc1cc(F)c(O[C@H]2CC[C@@H](C(=O)O)CC2)cc1C(=O)N[C@@H]1[C@H]2CC[C@H](C2)[C@@H]1C(=O)Nc1ccccc1 [Example 201, (1S,4s)-4-(2-Fluoro-4-methoxy-5-(((1S,2R,3S,4R)-3-(phenylcarbamoyl)bicyclo[2.2.1]heptan-2-yl)carbamoyl)phenoxy)cyclohexane-1-carboxylic acid] | 190 µL/min/1e6 cells | 940 µM (≈ 493 µg/mL) | 7.6 µL/min/1e6 cells | 98% | 7200 nM | 1.6 % free | 23 µL/min/mg | 
COc1cc(C#N)c(-c2ccc(OCC(=O)O)cc2)cc1C(=O)N[C@@H]1[C@H]2CC[C@H](C2)[C@@H]1C(=O)Nc1cccc(S(=O)(=O)C(F)(F)F)c1 [Example 329, 2-((2′-Cyano-4′-methoxy-5′-(((1S,2R,3S,4R)-3-((3-((trifluoromethyl)sulfonyl)phenyl)carbamoyl)bicyclo[2.2.1]heptan-2-yl)carbamoyl)-[1,1′-biphenyl]-4-yl)oxy)acetic acid] | 26 µL/min/1e6 cells | 1000 µM (≈ 672 µg/mL) | 5.6 µL/min/1e6 cells | 108% | 140 nM | 0.81 % free | 30 µL/min/mg | 
COc1cc(F)c(O[C@H]2CC[C@@H](C(N)=O)CC2)cc1C(=O)N[C@@H]1[C@H]2CC[C@H](C2)[C@@H]1C(=O)Nc1ccc(F)c(C(F)(F)F)c1 [Example 500, (1R,2S,3R,4S)-3-(5-(((1s,4S)-4-Carbamoylcyclohexyl)oxy)-4-fluoro-2-methoxybenzamido)-N-(4-fluoro-3-(trifluoromethyl)phenyl)bicyclo[2.2.1]heptane-2-carboxamide] | 98 µL/min/1e6 cells | 8 µM (≈ 4.88 µg/mL) | 45 µL/min/1e6 cells | 110% | 64 nM | 0.44 % free | > 300 µL/min/mg | 
